# Source: patent publication US8629157B2, “Pyrrolidine compounds which modulate the CB2 receptor” (Boehringer Ingelheim International GmbH, priority 2009, dated 2014)
# Like-named read-outs stand apart in the source and are kept apart here.
# Molecular target: human CB2R (Homo sapiens, UniProt P34972)
# Experiment: CB2R mediated modulation of cAMP synthesis
# Format: cell-based
# Summary of the method: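 cAMP measured with the DiscoverX-XS kit after 30 min, 37° C. compound exposure of human CB2R-expressing CHO cells stimulated by 10 uM forskolin (1 mM IBMX, 0.25% BSA).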
# [1] = CHO cells expressing human CB2R, inhibition of forskolin-stimulated cAMP synthesis, mean, read-out: CB2 CAMP @ EC50 nM (mean)
# human CB2R, sequence (P34972 whole entry): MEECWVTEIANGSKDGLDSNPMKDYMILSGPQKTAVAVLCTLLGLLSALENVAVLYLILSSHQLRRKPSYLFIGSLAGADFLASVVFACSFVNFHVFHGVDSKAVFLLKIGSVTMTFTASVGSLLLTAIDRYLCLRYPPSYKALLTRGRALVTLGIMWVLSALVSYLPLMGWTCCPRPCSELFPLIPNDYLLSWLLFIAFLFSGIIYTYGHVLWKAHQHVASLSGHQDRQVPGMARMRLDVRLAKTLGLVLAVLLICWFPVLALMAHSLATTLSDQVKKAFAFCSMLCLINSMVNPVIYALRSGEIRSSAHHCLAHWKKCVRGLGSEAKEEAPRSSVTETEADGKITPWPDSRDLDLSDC
SMILES,EC50 [nM],EC50 [1] [nM]
CC(C)(C)c1cc(NC(=O)[C@@H]2CCC(=O)N2c2ncc(C(F)(F)F)cc2F)on1 [(S)-1-(3-Fluoro-5-trifluoromethyl-pyridin-2-yl)-5-oxo-pyrrolidine-2-carboxylic acid (3-tert-butyl-isoxazol-5-yl)-amide],5,–
CC(C)(C)c1cc(NC(=O)[C@@H]2CCC(=O)N2c2cccc(F)c2)on1 [(S)-1-(3-Fluoro-phenyl)-5-oxo-pyrrolidine-2-carboxylic acid (3-tert-butyl-isoxazol-5-yl)-amide],357,–
CC(C)(C)c1cc(NC(=O)[C@@H]2CCCN2CCCO)on1 [(S)-1-(3-Hydroxy-propyl)-pyrrolidine-2-carboxylic acid (3-tert-butyl-isoxazol-5-yl)-amide],28.6,–
"CC(C)(C)c1nnc(NC(=O)[C@@H]2CCCN2CCCO)s1 [(S)-1-(3-Hydroxy-propyl)-pyrrolidine-2-carboxylic acid (5-tert-butyl-1,3,4-thiadiazol-2-yl)-amide]",320,–
"O=C(Nc1nc(-c2ccccc2)ns1)[C@@H]1CCC(=O)N1c1ncc(C(F)(F)F)cc1Cl [(S)-1-(3-chloro-5-trifluoromethyl-pyridin-2-yl)-5-oxo-pyrrolidine-2-carboxylic acid (3-phenyl-1,2,4-thiadiazol-5-yl)-amide]",–,0.549
CC(C)(C)c1cc(NC(=O)[C@@H]2CCC(=O)N2c2ncc(C(F)(F)F)cc2Cl)no1 [(S)-1-(3-chloro-5-trifluoromethyl-pyridin-2-yl)-5-oxo-pyrrolidine-2-carboxylic acid (5-tert-butyl-isoxazol-3-yl)-amide],6.5,–
"CC(C)(C)c1cc(NC(=O)[C@@H]2CC(F)(F)CN2C(=O)C2CCC(F)(F)CC2)no1 [(S)-1-(4,4-Difluoro-cyclohexanecarbonyl)-4,4-difluoro-pyrrolidine-2-carboxylic acid (5-tert-butyl-isoxazol-3-yl)-amide]",226,–
CC(C)(C)c1cc(NC(=O)[C@@H]2CCC(=O)N2c2ccc(Cl)cc2F)on1 [(S)-1-(4-Chloro-2-fluoro-phenyl)-5-oxo-pyrrolidine-2-carboxylic acid (3-tert-butyl-isoxazol-5-yl)-amide],82,–
CC(C)(C)c1cc(NC(=O)[C@@H]2CCC(=O)N2c2ccc(Cl)c(F)c2)on1 [(S)-1-(4-Chloro-3-fluoro-phenyl)-5-oxo-pyrrolidine-2-carboxylic acid (3-tert-butyl-isoxazol-5-yl)-amide],14.2,–
CC(C)(C)c1cc(NC(=O)[C@@H]2CCC(=O)N2c2ccc(Cl)c(F)c2)no1 [(S)-1-(4-Chloro-3-fluoro-phenyl)-5-oxo-pyrrolidine-2-carboxylic acid (5-tert-butyl-isoxazol-3-yl)-amide],12.7,–
Cc1cc(N2C(=O)CC[C@H]2C(=O)Nc2cc(C(C)(C)C)no2)ccc1Cl [(S)-1-(4-Chloro-3-methyl-phenyl)-5-oxo-pyrrolidine-2-carboxylic acid (3-tert-butyl-isoxazol-5-yl)-amide],23.7,–
Cc1cc(N2C(=O)CC[C@H]2C(=O)Nc2cc(C(C)(C)C)on2)ccc1Cl [(S)-1-(4-Chloro-3-methyl-phenyl)-5-oxo-pyrrolidine-2-carboxylic acid (5-tert-butyl-isoxazol-3-yl)-amide],59.4,–
CC(C)(C)c1cc(NC(=O)[C@@H]2CCCN2S(=O)(=O)c2ccc(Cl)cc2)no1 [(S)-1-(4-Chloro-benzenesulfonyl)-pyrrolidine-2-carboxylic acid (5-tert-butyl-isoxazol-3-yl)-amide],284,–
CC(C)(C)c1cc(NC(=O)[C@@H]2CCCN2Cc2ccc(Cl)cc2)on1 [(S)-1-(4-Chloro-benzyl)-pyrrolidine-2-carboxylic acid (3-tert-butyl-isoxazol-5-yl)-amide],2.28,–
CC(C)(C)c1cc(NC(=O)[C@]2(C)CCCN2c2ccc(Cl)cc2)no1 [(S)-1-(4-Chloro-phenyl)-2-methyl-pyrrolidine-2-carboxylic acid (5-tert-butyl-isoxazol-3-yl)-amide],0.21,–
C[C@@]1(C(=O)Nc2ccc(C(F)(F)F)cn2)CCCN1c1ccc(Cl)cc1 [(S)-1-(4-Chloro-phenyl)-2-methyl-pyrrolidine-2-carboxylic acid (5-trifluoromethyl-pyridin-2-yl)-amide],27.2,–
O=C(NCCC1CCCCC1)[C@@H]1CCC(=O)N1c1ccc(Cl)cc1 [(S)-1-(4-Chloro-phenyl)-5-oxo-pyrrolidine-2-carboxylic acid (2-cyclohexyl-ethyl)-amide],334,–
"CC1CC(NC(=O)[C@@H]2CCC(=O)N2c2ccc(Cl)cc2)CC(C)(C)C1 (stereo partly drawn) [(S)-1-(4-Chloro-phenyl)-5-oxo-pyrrolidine-2-carboxylic acid (3,3,5-trimethyl-cyclohexyl)-amide]",212,–
CC(C)c1cc(NC(=O)[C@@H]2CCC(=O)N2c2ccc(Cl)cc2)on1 [(S)-1-(4-Chloro-phenyl)-5-oxo-pyrrolidine-2-carboxylic acid (3-isopropyl-isoxazol-5-yl)-amide],290,–
CCCc1cc(NC(=O)[C@@H]2CCC(=O)N2c2ccc(Cl)cc2)on1 [(S)-1-(4-Chloro-phenyl)-5-oxo-pyrrolidine-2-carboxylic acid (3-propyl-isoxazol-5-yl)-amide],263,–

SMILES,EC50 [nM],EC50 [1] [nM]
CCC(C)c1cc(NC(=O)[C@@H]2CCC(=O)N2c2ccc(Cl)cc2)on1 (stereo partly drawn) [(S)-1-(4-Chloro-phenyl)-5-oxo-pyrrolidine-2-carboxylic acid (3-sec-butyl-isoxazol-5-yl)-amide],–,104
CC(C)(C)c1cc(NC(=O)[C@@H]2CCC(=O)N2c2ccc(Cl)cc2)sn1 [(S)-1-(4-Chloro-phenyl)-5-oxo-pyrrolidine-2-carboxylic acid (3-tert-butyl-isothiazol-5-yl)-amide],135,–
CC(C)(C)c1cccc(NC(=O)[C@@H]2CCC(=O)N2c2ccc(Cl)cc2)c1 [(S)-1-(4-Chloro-phenyl)-5-oxo-pyrrolidine-2-carboxylic acid (3-tert-butyl-phenyl)-amide],58.7,–
CC(C)(C)C1CCC(NC(=O)[C@@H]2CCC(=O)N2c2ccc(Cl)cc2)CC1 (stereo partly drawn) [(S)-1-(4-Chloro-phenyl)-5-oxo-pyrrolidine-2-carboxylic acid (4-tert-butyl-cyclohexyl)-amide],159,–
O=C(Nc1nc2cc(Cl)ccc2[nH]1)[C@@H]1CCC(=O)N1c1ccc(Cl)cc1 [(S)-1-(4-Chloro-phenyl)-5-oxo-pyrrolidine-2-carboxylic acid (5-chloro-1H-benzimidazol-2-yl)-amide],–,255
Cc1ccc(NC(=O)[C@@H]2CCC(=O)N2c2ccc(Cl)cc2)nc1 [(S)-1-(4-Chloro-phenyl)-5-oxo-pyrrolidine-2-carboxylic acid (5-methyl-pyridin-2-yl)-amide],485,–
"CC(C)(CO)c1cc(NC(=O)[C@@H]2CCC(=O)N2c2ccc(Cl)cc2)on1 [(S)-1-(4-Chloro-phenyl)-5-oxo-pyrrolidine-2-carboxylic acid [3-(2-hydroxy-1,1-dimethyl-ethyl)-isoxazol-5-yl]-amide]",152,–
"COc1ccc(-c2nsc(NC(=O)[C@@H]3CCC(=O)N3c3ccc(Cl)cc3)n2)cc1 [(S)-1-(4-Chloro-phenyl)-5-oxo-pyrrolidine-2-carboxylic acid [3-(4-methoxy-phenyl)-1,2,4-thiadiazol-5-yl]-amide]",–,194
"CC(C)(C)CC(C)(C)NC(=O)[C@@H]1CCCN1c1ccc(Cl)cc1 [(S)-1-(4-Chloro-phenyl)-pyrrolidine-2-carboxylic acid (1,1,3,3-tetramethyl-butyl)-amide]",25.1,–
CC(=O)N1CCC(CNC(=O)[C@@H]2CCCN2c2ccc(Cl)cc2)CC1 [(S)-1-(4-Chloro-phenyl)-pyrrolidine-2-carboxylic acid (1-acetyl-piperidin-4-ylmethyl)-amide],0.015,–
CC(C)(C)SCCNC(=O)[C@@H]1CCCN1c1ccc(Cl)cc1 [(S)-1-(4-Chloro-phenyl)-pyrrolidine-2-carboxylic acid (2-tert-butylsulfanyl-ethyl)-amide],2.61,–
"CC1CC(NC(=O)[C@@H]2CCCN2c2ccc(Cl)cc2)CC(C)(C)C1 (stereo partly drawn) [(S)-1-(4-Chloro-phenyl)-pyrrolidine-2-carboxylic acid (3,3,5-trimethyl-cyclohexyl)-amide]",2.16,–
O=C(Nc1ccc(C(F)(F)F)c(F)c1)[C@@H]1CCCN1c1ccc(Cl)cc1 [(S)-1-(4-Chloro-phenyl)-pyrrolidine-2-carboxylic acid (3-fluoro-4-trifluoromethyl-phenyl)-amide],30.4,–
"O=C(Nc1nc(-c2ccccc2)ns1)[C@@H]1CCCN1c1ccc(Cl)cc1 [(S)-1-(4-Chloro-phenyl)-pyrrolidine-2-carboxylic acid (3-phenyl-1,2,4-thiadiazol-5-yl)-amide]",4.85,–
CCCc1cc(NC(=O)[C@@H]2CCCN2c2ccc(Cl)cc2)on1 [(S)-1-(4-Chloro-phenyl)-pyrrolidine-2-carboxylic acid (3-propyl-isoxazol-5-yl)-amide],2.41,–
"O=C(Nc1nc2c(s1)CCCC2)[C@@H]1CCCN1c1ccc(Cl)cc1 [(S)-1-(4-Chloro-phenyl)-pyrrolidine-2-carboxylic acid (4,5,6,7-tetrahydro-benzothiazol-2-yl)-amide]",–,12.7
O=C(Nc1nc(C2CCCCC2)cs1)[C@@H]1CCCN1c1ccc(Cl)cc1 [(S)-1-(4-Chloro-phenyl)-pyrrolidine-2-carboxylic acid (4-cyclohexyl-thiazol-2-yl)-amide],35.5,–
O=C(Nc1nc(C2CC2)cs1)[C@@H]1CCCN1c1ccc(Cl)cc1 [(S)-1-(4-Chloro-phenyl)-pyrrolidine-2-carboxylic acid (4-cyclopropyl-thiazol-2-yl)-amide],36.1,–
CCc1ccnc(NC(=O)[C@@H]2CCCN2c2ccc(Cl)cc2)c1 [(S)-1-(4-Chloro-phenyl)-pyrrolidine-2-carboxylic acid (4-ethyl-pyridin-2-yl)-amide],1.2,–
O=C(Nc1ccc(F)c(C(F)(F)F)c1)[C@@H]1CCCN1c1ccc(Cl)cc1 [(S)-1-(4-Chloro-phenyl)-pyrrolidine-2-carboxylic acid (4-fluoro-3-trifluoromethyl-phenyl)-amide],19.1,–
